Assay results from patent US6033669A, “Methods for generating cytotoxic T cells and treatment of diseases thereby” (priority 1992, dated 2000).
Non-standard residues stand in square brackets, D forms with d. Residues, ends and D or L forms follow the SMILES beside them. *: point of attachment. CH2CH2O(Galα1-4Galβ) = OC[C@H]1O[C@H](O[C@@H]2[C@H](O)[C@@H](O)[C@H](OCC*)O[C@@H]2CO)[C@H](O)[C@@H](O)[C@H]1O; X1 = OC[C@H]1O[C@H](O[C@@H]2[C@H](O)[C@@H](O)[C@H](*)O[C@@H]2CO)[C@H](O)[C@@H](O)[C@H]1O; hCys = N[C@@H](CCS)C(=O)O

Tests used:
RMA-S cells = assay: Membrane expression of the CHO part (Gal2) by antibody staining in FACS; format: cell-based; conditions: data not shown
Method: Panel A: RMA-s cells were incubated for 24 hours at 26° C. to induce expression of empty D^b MHC-1 chains at the cell surface, and at 37° C., and stained for D^b expression. Panel B: Removal of D^b expression by pronase treatment of RMA-S cells, preincubated at 26° C. Pronase treatment for 2 h and 4 h. D^b removal is complete at 4 h. Panels C and E: 26° C. induced RMA-S cells were treated with the glycopeptides Gal2 -CSG11 (panel C) or Gal2 CAS10 (panel E), 300 μM for 2 h at 37° C., washed and stained for Gal2 expression. Panels D and F: Glycopeptide treated RMA-S cells as in panels C and E were pronase treated to remove Db and glycopeptide expression, washed and further incubated at 37° C. to allow re-expression of glycopeptides and stained for Gal2 expression.
When the glycopeptide bind to MHC-1, on the cell surface, the expression (and acessibility) of the corresponding CHO part, can be detected by antibody staining in FACS, as described above in relation to FIGS. 10C and E.

[1] = tested on: monoclonal antibody MC2101; assay: ELISA recognition of Gal2 glycopeptides by monoclonal antibody MC2101; format: binding, mouse; conditions: antibody MC2101 (specificity Galabios Gal--Gal); peptides coated at 50 μg/ml, pH 9.6
Method: (§1) Peptides (50 μg/ml) were diluted in 0.05 M carbonate buffer (pH 9.6) and 100 μl/well was added to flat-bottomed Costar microplates (cat. No 3590) for incubation over-night at 4° C. Plates were washed once with PBS, pre-incubated with […] for 30 minutes at room temperature and washed twice with PBS/0.05% Tween buffer. Monoclonal antibodies were diluted in 0.5% gelatin/PBS/0.05% Tween, added to microplates and incubated for 2 hours at room temperaure, and flick-washed with PBS/Tween. Alkaline phosphatase conjugated rabbit anti-mouse immunoglobulins (Dakopauts code No. S 414) was diluted 1/1000 in PBS/Tween and added as 100 μl/well. After 2 hours incubation at room temperature and 4 washes with PBS/Tween, 100 μl of alkaline phosphatase substrate solution was added. Plates were read after 2 hour at room temperaure, using a Multiskan System (Lab systems), for optical density at 405 nm.
The ELISA assay was performed as described in connection with Table 4.

[2] = tested on: monoclonal antibody Pk002; assay: ELISA recognition of Gal2 glycopeptides by monoclonal antibody Pk002; format: binding, mouse; conditions: antibody Pk002 (specificity Globotriaosyl Gal--Gal--Glc, CD77); peptides coated at 50 μg/ml, pH 9.6
Method: as §1

[3] = tested on: target cells coated with different peptides and glycopeptides; assay: Immunogenicity: mice immunized with glycopeptides, restimulated CTL tested for killing of coated target cells; format: in vivo; conditions: for Comments: Table 5, comment on immunogenicity and cross-reactivity of CTL

Q: How did the “expression of the Gal2 epitope on the surface of cells that have bound glycopeptides (FACS)” value (RMA-S cells) turn out when `CSCC[C@H](NC(=O)[C@@H](NC(=O)[C@H](CCC(=O)O)NC(=O)[C@H](CO[C@@H]1O[C@H](CO)[C@H](O[C@H]2O[C@H](CO)[C@H](O)[C@H](O)[C@H]2O)[C@H](O)[C@H]1O)NC(=O)[C@H](CC(N)=O)NC(=O)[C@H](CCC(=O)O)NC(=O)[C@H](CC(N)=O)NC(=O)[C@H](CO)NC(=O)[C@H](C)N)[C@@H](C)O)C(=O)O` [Conjugate A5N9-6S-Gal2] (H-ASNENS(X1)ETM-OH) was run?
A: not recognized

Q: `CSCC[C@H](NC(=O)[C@@H](NC(=O)[C@H](CCC(=O)O)NC(=O)[C@H](CCSC)NC(=O)[C@H](CC(N)=O)NC(=O)[C@H](CCC(=O)O)NC(=O)[C@H](CC(N)=O)NC(=O)[C@H](CO)NC(=O)[C@H](C)NC(=O)[C@@H](N)CSCCO[C@@H]1O[C@H](CO)[C@H](O[C@H]2O[C@H](CO)[C@H](O)[C@H](O)[C@H]2O)[C@H](O)[C@H]1O)[C@@H](C)O)C(=O)O` [Gal2 -CAS10] was tested. Which “Absorbance at 405 nm” value [1] did it give?
A: 0.41

Q: And the “Absorbance at 405 nm” value [2]?
A: 0.04

Q: How did the “expression of the Gal2 epitope on the surface of cells that have bound glycopeptides (FACS)” value (RMA-S cells) turn out when `CC(C)C[C@H](NC(=O)CNC(=O)[C@H](CCC(N)=O)NC(=O)[C@H](Cc1ccc(O)cc1)NC(=O)[C@@H](NC(=O)[C@H](Cc1ccc(O)cc1)NC(=O)CNC(=O)[C@H](CCCNC(=N)N)NC(=O)[C@@H](N)CSCCO[C@@H]1O[C@H](CO)[C@H](O[C@H]2O[C@H](CO)[C@H](O)[C@H](O)[C@H]2O)[C@H](O)[C@H]1O)C(C)C)C(=O)O` [Gal2 -CRG9] was run?
A: high Gal2 expression

Q: With `CC(C)C[C@H](NC(=O)CNC(=O)[C@H](CCC(N)=O)NC(=O)[C@H](Cc1ccc(O)cc1)NC(=O)[C@H](CCSCCO[C@@H]1O[C@H](CO)[C@H](O[C@H]2O[C@H](CO)[C@H](O)[C@H](O)[C@H]2O)[C@H](O)[C@H]1O)NC(=O)[C@H](Cc1ccc(O)cc1)NC(=O)CNC(=O)[C@@H](N)CCCNC(=N)N)C(=O)O` [RGY8-4h-Gal2] (H-RGY[hCys](CH2CH2O(Galα1-4Galβ))YQGL-OH) as the compound, how does the “CTL generated, tested against EL-4 cells coated with RGY8-4 h-Gal2 and RGY8-4 h” value ([3]; FIG. 14(A)) read?
A: both peptide and glycopeptide specific CTL cells are generated

Q: What about the “killing of EL-4 cells coated with SGV12-Gal2 or SGV12 by generated CTL” value ([3]; FIG. 14(B), criss-cross) of the same compound?
A: only the cells coated with glycopeptide were killed

Q: How did the “expression of the Gal2 epitope on the surface of cells that have bound glycopeptides (FACS)” value (RMA-S cells) turn out when `CC(C)C[C@H](NC(=O)[C@H](CSCCO[C@@H]1O[C@H](CO)[C@H](O[C@H]2O[C@H](CO)[C@H](O)[C@H](O)[C@H]2O)[C@H](O)[C@H]1O)NC(=O)[C@H](Cc1ccc(O)cc1)NC(=O)CNC(=O)CNC(=O)[C@@H]1CCCN1C(=O)[C@H](CC(N)=O)NC(=O)[C@H](CCC(=O)O)NC(=O)[C@@H](NC(=O)CNC(=O)[C@@H](N)CO)C(C)C)C(=O)N[C@H](C(=O)O)[C@@H](C)O` [SGV12-Gal2] was run?
A: high Gal2 expression

Q: And the “killing of EL-4 cells coated with glycopeptide 7 by generated CTL” value ([3]; FIG. 13)?
A: at a lower level

Q: What about the “killing of EL-4 cells coated with glycopeptides 2 and 5 by generated CTL” value ([3]; FIG. 13) of the same compound?
A: killed

Q: What about the “recognition of carrier peptide alone (SGV12) and other control peptides by generated CTL” value ([3]; FIG. 13) of the same compound?
A: did not recognize the carrier peptide alone

Q: And the “type of T cell response generated by immunization” value ([3]; mouse, in vivo)?
A: Gal2 specific T cell response

Q: ASNENMDAM [pep 9(NT60)] was tested. Which “lysis of virus specific and peptide-coated EL4 cells by induced CTL” value (EL4 target cells; 0.05 μM used for restimulation versus 5 μM and 0.5 μM, 100 μg s.c.) did it give?
A: more efficiently lysed

Q: And the “anti-peptide and antiviral CTL responses” value (EL4 target cells; compared with pep 9(PR8), FIG. 3)?
A: stronger anti-peptide and antiviral CTL responses

Q: What about the “specificity of induced CTL” value (EL4 target cells; mouse, in vivo) of the same compound?
A: preferentially killed their corresponding peptide-coated and virus-infected cells

Q: Which “Absorbance at 405 nm” value [1] does the source give for “C A S N E N M E T M (CASNENMETM) [CAS10]” here?
A: 0.02

Q: What about the “Absorbance at 405 nm” value [2] of the same compound?
A: 0.01

Q: For CSGPSNTPPEI [CSG11], which “Absorbance at 405 nm” value [1] is on record?
A: 0.01

Q: And the “Absorbance at 405 nm” value [2]?
A: 0.08

Q: How did the Comments [3] turn out when F A P G h Y P A L [FAP9-5h] was run?
A: Weaker, low FAP9 reactivity

Q: With “FAP9: K^b binding peptide, SEQ ID NO: 20; sequence not printed (FAPGNYPAL)” as the compound, how does the Comments [3] read?
A: Strong, with high FAP9-5h reactivity

Q: R G Y h Y Q G L [RGY8-4h] was tested. Which Comments [3] did it give?
A: Strong, with RGY8 reactivity

Q: How did the Comments [3] turn out when RGYVYQGL [RGY8] was run?
A: Some RGY8-4h reactivity
